Several values for one entry are separate records, joined by “and”; a condition that tells them apart may be missing. Equal values may be shown once.
Columns and labels:
[1] = test system: serum cytokines and chemokines associated with TLR8 activation; assay: Induction of cytokines and chemokines in Rhesus macaques (serum, Luminex); assay type: in vivo
Protocol: The TLR8 modulator of Example 65 was formulated in 2% ethanol, 40% polyethylene glycol 300, and 58% 0.01 N hydrochloric acid. Oral solutions of formulations were prepared by dissolving a sufficient amount of the compound in the 2% ethanol, 40% polyethylene glycol 300, and 58% 0.01 N hydrochloric acid vehicle to arrive at 0.5, 1.5, or 5 mg/ml of Example 65. Rhesus macaques were dosed orally with 1.2 to 2 mls/kg to achieve dose levels of 1, 3, 6, or 10 mg/kg Example 65. Blood samples were collected at 2, 4, 8, 12, 24 and 48 hours postdose (FIG. 5) and allowed to clot under ambient conditions prior to centrifugation to obtain serum. The indicated cytokines and chemokines were quantified in serum with a multiplexed Luminex® assay following the manufacturer's instructions (Life Technologies). […] At 10 and 6 mg/kg, IL-12, IL-1RA and MCP-1 peaked near 10 ng/ml and IL-6 peaked at 1 ng/ml.

[2] = test system: HIV-specific polyfunctional CD8 T cells; assay: Induced HIV-specific polyfunctional CD8+ T cells in PBMC cultures from HIV-1 infected subjects on cART; assay type: cell-based, human; settings: for Median HIV-specific polyfunctional CD8 T cells (% proliferating CD8+ cells double positive for IFN-γ and TNF-α): 5 subjects, vehicle 0.73% (Example 15 group), 0.13% (Example 98 group)
[3] = test system: HIV-1 expression in PBMC cultures from HIV-1 infected subjects on cART; assay: Induced HIV-1 expression in PBMC cultures from HIV-1 infected subjects on cART (HIV-1 RNA in culture supernatant, COBAS TaqMan); assay type: cell-based, human; settings: for Fold HIV-1 Activation, Geometric Mean with ≧2-Fold-Activation / Fold HIV-1 Activation, Range with ≧2-Fold-Activation: N = 5 subjects
Protocol: In some experiments, IL-15, the TLR8 modulating compound of Example 15 or the combination of IL-15 and Example 15 were used at the indicated concentrations (Table 4). The cultures were maintained in the presence of antivirals (elvitegravir and efavirenz at 100 nM each) to prevent viral spread and amplification in order to measure the quantity of virus produced (latency reversal) by the TLR8 modulating compounds. At the end of the incubation period, cell-free culture supernatants were harvested and HIV-1 RNA levels were quantified by the COBAS® AmpliPrep/COBAS®TaqMan HIV-1 Test, v2.0 (Roche).
In each table, fold-activation is calculated as a ratio of HIV-1 RNA copies per ml of cell culture supernatants from TLR8 agonist treated samples and DMSO treated controls. Geometric mean fold-activation from three independent incubation samples for each condition of each subject's PBMCs.
To assess if the latency reversal induced by TLR8 agonism could further potentiate latency reversal by a separate mechanisms, we treated cells as described above with IL-15, Example 15, or a combination of IL-15 and Example 15 (Table 4).

[4] = Example 15 1000 nM and/or IL-15 1 nM, subjects 205-210

## CCCC[C@](C)(CNC(C)=O)Nc1nc(N)nc2cc(Cl)cnc12 [Example 65]
[1]; oral, 1, 3, 6, or 10 mg/kg
  Induction of cytokines associated with TLR8 activation, including IL-12, IL-6, IL-1RA and MCP-1: induced in a dose-dependent manner
  Time of peak cytokine concentrations post-dose: 2 h
[1]; oral, 10 and 6 mg/kg
  Serum IL-1RA peak: ~10 ng/mL
  Serum IL-6 peak: 1 ng/mL
  Serum IL-12 peak: ~10 ng/mL
  Serum MCP-1 peak: ~10 ng/mL

## CCCCC(C)(CO)Nc1nc(N)nc2cc(F)cnc12 (stereo not drawn) [Example 98]
[2]; 100 nM
  Patients in whom increases were seen: 4 of 5
[2]; 100 nM with HIV peptide pool
  Median HIV-specific polyfunctional CD8 T cells (% proliferating CD8+ cells double positive for IFN-γ and TNF-α): 0.93%
[2]; 1000 nM
  Patients in whom increases were seen: 4 of 5
[2]; 1000 nM combined with the HIV specific peptide pool, p<0.05
  Increase of median HIV-specific polyfunctional CD8 T cells: 7.1 fold
[2]; 1000 nM with HIV peptide pool
  Median HIV-specific polyfunctional CD8 T cells (% proliferating CD8+ cells double positive for IFN-γ and TNF-α): 0.92%

## CCC[C@@H](CO)Nc1nc(N)nc2cc(F)c(F)cc12 [Example 119, (S)-2-((2-amino-6,7-difluoroquinazolin-4-yl)amino)pentan-1-ol, reference compound]
[3]; 156 nM, 4 days, individual subjects 151-155, vs DMSO
  Fold HIV-1 Activation: 3.6 fold and 4.9 fold and 0.4 fold
[3]; 156 nM
  Fold HIV-1 Activation, Geometric Mean with ≧2-Fold-Activation: 4.2 fold
  Fold HIV-1 Activation, Range with ≧2-Fold-Activation: 3.6-4.9 fold
[3]; 156 nM, subjects 151-155
  N with ≧2-Fold-Activation: 2 of 3
  N with ≧2-Fold-Activation (%): (67) %
[3]; 625 nM, 4 days, individual subjects 151-155, vs DMSO
  Fold HIV-1 Activation: 3.4 fold and 4.1 fold and 4.8 fold and 0.3 fold and 0.5 fold
[3]; 625 nM
  Fold HIV-1 Activation, Geometric Mean with ≧2-Fold-Activation: 4.1 fold
  Fold HIV-1 Activation, Range with ≧2-Fold-Activation: 3.4-4.8 fold
[3]; 625 nM, subjects 151-155
  N with ≧2-Fold-Activation: 3 of 5
  N with ≧2-Fold-Activation (%): (60) %
[3]; 2,500 nM, 4 days, individual subjects 151-155, vs DMSO
  Fold HIV-1 Activation: 4.1 fold and 4.2 fold and 3.2 fold and 5.2 fold and 2.2 fold
[3]; 2,500 nM
  Fold HIV-1 Activation, Geometric Mean with ≧2-Fold-Activation: 3.6 fold
  Fold HIV-1 Activation, Range with ≧2-Fold-Activation: 2.2-5.2 fold
[3]; 2,500 nM, subjects 151-155
  N with ≧2-Fold-Activation: 5 of 5
  N with ≧2-Fold-Activation (%): (100) %
[3]; 156, 625, or 2500 nM
  Fold HIV-1 Activation, Geometric Mean with ≧2-Fold-Activation: 4.1 fold
  Fold HIV-1 Activation, Range with ≧2-Fold-Activation: 2.2-5.2 fold
[3]; 156, 625, or 2500 nM, subjects 151-155
  N with ≧2-Fold-Activation: 5 out of 5 and 5 of 5

## IL-15: interleukin IL-15, used at 1 nM as a separate latency reversal mechanism
[3]; Example 15 1000 nM and/or IL-15 1 nM, N = 6 subjects
  Fold HIV-1 Activation, Geometric Mean: 2.9 fold
[3]; Example 15 1000 nM and/or IL-15 1 nM, individual subjects 205-210, vs DMSO
  Fold HIV-1 Activation: 2.6 fold and 3.3 fold and 4.4 fold and 6.3 fold and 1.4 fold and 1.6 fold
[3]; [4]
  N with ≧2-Fold-Activation: 4 of 6
  N with ≧2-Fold-Activation (%): 66%

Reference: patent US20170071944A1, “MODULATORS OF TOLL-LIKE RECEPTORS FOR THE TREATMENT OF HIV” (Gilead Sciences, Inc., priority 2015, published 2017)
